For one experiment, the system named is renal epithelial cells. The experiment is described as follows: Measurement of GSH content. The conditions noted are these: single treatment of cisplatin 25 μg/ml, 24 hours. It counts as cell-based. The method, then: Monochlorobimane was employed to determine the GSH levels, and experiments for measuring GSH content were performed using the […] with reference to the conventional method of Fernandez-Checa and Kaplowitz. The number of cells, in which GSH is detectable, was determined by historical data and preliminary experiment, and 2×10^6 cells were seeded to each well of culture plate. After culture for 24 hours, the dilution fold of the final concentration of the drug determined as an active drug was considered and calculated, based on the results of MTT Assay and crystal violet Assay. […] Cells were harvested using 0.25% Trypsin-EDTA, and then centrifuged at 1,200 rpm for 3 minutes. Cold buffer was added to the resulting cell pellet, followed by sonication for 30 seconds. Centrifugation was carried out at 10,000 rpm for 15 minutes, and then the supernatant was collected and used for BCA protein quantification. 1 g/ml of MPA diluted in D.W was added to the supernatant at a volume ratio of 4:1, followed by immediately vortexing. […] End-point fluorescence wavelength at Ex: 360 nm and Em: 460 nm was measured at S=70. Data of the experimental results were analyzed using a Microsoft Excel program, and post-test analysis using Bonferroni multiple comparison test was performed to investigate the differences between the groups. p<0.001 was considered statistically significant.

Another experiment relates to p53. The experiment is described as follows: Examination of p53 expression pattern (Western blot). The class given is cell-based. The conditions noted are these: single treatment of cisplatin. The procedure: Cells treated with Elsholtziae Herba extract and/or cisplatin were harvested, and RIPA buffer was added thereto, followed by sonication for cell lysis. Centrifugation was performed at 15,000 rpm for 15 minutes, and the supernatant was obtained, and subjected to protein quantification by BCA assay. The protein was loaded at an amount of 20 μg/10 μl in each well, and 12% SDS-PAGE polyacrylamide gel electrophoresis was performed, and transferred to a nitrocellulose membrane. The membrane was blocked with 5% Skim milk-TBST, and then treated with primary antibody (anti-p53/dilution—1:300). p53 was detected with HRP conjugated anti-mouse IgG (dilution—1:5000) and immune reaction was visualized by ECL. The measurement results are shown as Mean±S.E.M. (standard error of mean) in FIG. 6.
(In general: In western blotting, separated proteins are transferred to a membrane and probed.)

Entries after “also recorded” stand apart in the source; their conditions may differ.

Take `N.N.[Cl][Pt][Cl]` [cisplatin, cis-diaminedichloroplatinum II]: in the experiment with renal epithelial cells, the GSH content entry is “reduced GSH content”. Further, in the experiment with p53, the p53 expression level entry was “increased p53 expression; also recorded: remarkably increased”.

Source of the values: US9433655B2, “Composition comprising natural substance extract as active ingredient for preventing or treating acute renal failure” (priority 2012, dated 2016).
